Reference: patent US20210009630A1, “CYCLIC DINUCLEOTIDES AS STING AGONISTS” (Janssen Biotech, Inc., priority 2017, published 2021)
pEC50, pIC50, pKd: −log10 of the molar value. Where two headings read alike, the source gives them in different places.

Experiments:
[1] = target: human STING (biotinylated STING protein, residues 139-379 of Q86WV6, H232R) (Homo sapiens, UniProt Q86WV6, H232R); experiment: STING SPA binding assay
Procedure: The HIS tag is cleaved after purification and prior to biotinylation.
Test compounds (80 nL) were added with an acoustic dispenser (EDC Biosystems) in 100% DMSO for a final assay concentration of 1% DMSO. Plates were centrifuged for 1 min and incubated for 60 min at room temperature. […] Plates were dark adapted for 2 h and read on a ViewLux (Perkin Elmer) for 12 min per plate.

[2] = target: T1, human STING (E. coli produced truncated STING protein) (Homo sapiens, UniProt Q86WV6, H232R); experiment: STING SPR binding assay; details: steady state affinity, 1:1 binding model, 25° C.
T1 construct: contains residues 139-379 of Q86WV6 with an R at position 232 (H232R); HIS tag (N, cleaved yes); made in house; host or cells: E. coli
T1 sequence (Q86WV6 139-379 H232R): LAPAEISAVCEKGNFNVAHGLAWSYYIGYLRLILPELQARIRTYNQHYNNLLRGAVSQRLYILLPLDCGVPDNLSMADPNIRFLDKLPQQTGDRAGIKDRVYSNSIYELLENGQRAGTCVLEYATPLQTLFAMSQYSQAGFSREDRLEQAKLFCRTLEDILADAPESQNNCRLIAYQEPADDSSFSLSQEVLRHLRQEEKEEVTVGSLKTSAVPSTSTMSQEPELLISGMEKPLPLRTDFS
Procedure: Compounds were analyzed on an S200 biacore SPR instrument (GE Healthcare). E. coli produced truncated STING protein was immobilized on a series S streptavidin chip via biotin capture (GE Healthcare #BR100531) with. […] Steady state affinity and kinetic evaluations were carried out using 1:1 binding model (STING was treated as a dimer). Run parameters were as follows: 60 sec on, 300 sec off for the IFM compounds, cyclic-di-GMP (60 sec on/60 sec off), thiol isomer 1 (60 sec on/300 sec off) and cGAMP (60 sec on/1200 sec off) with a flow rate of 50 μL/min and data collection at 40 Hz at 25° C.

[3] = test system: THP1-Blue ISG cells (IFN-β secretion); experiment: Human interferon-β induction assay; assay type: cell-based; details: total cumulative IFN-β induction over the dose range tested (0.78 to 50 uM) in THP-1 cells after a 24 hour exposure
Procedure: THP1-Blue ISG cells are used to measure the secretion of IFN-β into the culture supernatant following STING pathway activation. To run the assay, anti-IFN-β capture antibodies were coated on […] well MultiArray plates (Mesoscale Discovery). After a one hour incubation, plates were washed and 50 μL supernatant from the STING human cell reporter assay plates or IFN-β standards were mixed with 20 μL Sulfotag-conjugated detection antibody in the coated plates. Plates were incubated, shaking for 2 h, washed, and read buffer was applied. Electrochemiluminescence was measured on the SectorImager.

[4] = test system: human STING pathway (THP1-ISG cells); experiment: STING human cell reporter assay; assay type: cell-based; details: IRF-inducible SEAP reporter, 24 h, means of at least three values
Procedure: Agonism of the human STING pathway is assessed in THP1-ISG cells (Invivogen, cat #thp-isg) derived from human THP1 monocyte cell line by stable integration of an interferon regulatory factor (IRF)-inducible SEAP reporter construct. THP1-Blue ISG cells express a secreted embryonic alkaline phosphatase (SEAP) reporter gene under the control of an ISG54 minimal promoter in conjunction with five interferon (IFN)-stimulated response elements. As a result, THP1-Blue ISG cells allow the monitoring of IRF activation by determining the activity of SEAP. The levels of IRF-induced SEAP in the cell culture supernatant are readily assessed with alkaline phosphatase detection medium, a SEAP detection reagent. These cells are resistant to Zeocin. 2′3′cGAMP was used as a positive control in this assay. To run the assay, 60,000 cells were dispensed in 30 μL/well of a white, opaque bottom tissue culture treated 384-well plate.
Test compounds were added in a volume of 10 μL (1% DMSO final concentration). Compounds are initially prepared in 100% DMSO, spotted on an compound dilution plate and then diluted in media prior to transfer. The assay was incubated for 24 h at 37° C., 5% CO2 then plates were centrifuged at 1200 rpm (120×g) for 5 min. After final incubation, 90 μL of alkaline phosphatase detection medium-substrate was added to each well of a new 384-well clear plate and 10 μL of the cell supernatant was transferred from the assay plate to the new alkaline phosphatase detection medium-plate using a Biomek FX and mixed 4 times. Plates were incubated at RT for 20 min then absorbance at 655 nm was determined on the Tecan Safire2.

[5] = read-out: hSTING SPA IC50, displacement of [3H]-2′3′-cGAMP from biotin-STING, means of at least three values

human STING (biotinylated STING protein, residues 139-379 of Q86WV6, H232R), sequence (Q86WV6 139-379 H232R, one chain of several): as the sequence (Q86WV6 139-379 H232R) above

Compound | pIC50 [1, 5] | pKd [2] | human IFN-β (ranking value) [3] | pEC50 [4] | pIC50 [1] | pEC50 ([4]; Homo sapiens)
Nc1ncnc2c1ncn2[C@@H]1O[C@@H]2COP(=O)(O)O[C@H]3[C@@H](O)[C@H](n4cnc5c(N)ncnc54)O[C@@H]3COP(=O)(O)O[C@H]2[C@H]1O [3′,3′cAMP, reference compound] | 4.14 | 5.22 | 539 pg/mL | 4.75 | – | –
Nc1nc2c(ncn2[C@@H]2O[C@@H]3COP(=O)(O)O[C@H]4[C@@H](O)[C@H](n5cnc6c(=O)[nH]c(N)nc65)O[C@@H]4COP(=O)(O)O[C@H]3[C@H]2O)c(=O)[nH]1 [3′,3′cGMP, reference compound] | 5.06 | 5.40 | – | 5.06 | – | –
CO[C@H]1[C@H]2OP(=O)(O)OC[C@H]3O[C@@H](n4cnc5c(N)ncnc54)[C@H](F)[C@@H]3NS(=O)(=O)OC[C@H]1O[C@H]2n1cnc2c(=O)[nH]c(N)nc21 [Compound 6] | – | 8.92 | 6762 pg/mL | – | 7.96 | 6.00
CO[C@H]1[C@H]2OS(=O)(=O)NC[C@]34CO[C@H](C3OP(=O)(O)OC[C@H]1O[C@H]2n1cnc2c(=O)[nH]c(N)nc21)[C@H](n1cnc2c(N)ncnc21)O4 (stereo partly drawn) [Compound 9] | – | 6.55 | 8104 pg/mL | – | 5.55 | 6.96
Nc1nc2c(ncn2[C@@H]2O[C@@H]3COP(=O)(O)O[C@H]4[C@@H](F)[C@H](n5cnc6c(N)ncnc65)O[C@@H]4CNS(=O)(=O)O[C@@H]2[C@@H]3O)c(=O)[nH]1 [Compound 11] | – | 8.19 | 14896 pg/mL | – | 7.82 | 7.52
CO[C@H]1[C@H]2OS(=O)(=O)NC[C@H]3O[C@@H](n4cnc5c(N)ncnc54)C[C@@H]3OP(=O)(O)OC[C@H]1O[C@H]2n1cnc2c(=O)[nH]c(N)nc21 [Compound 12] | – | – | – | – | 6.66 | 6.85
Nc1nc2c(nnn2[C@@H]2O[C@@H]3COP(=O)(O)O[C@H]4[C@@H](F)[C@H](n5cnc6c(N)ncnc65)O[C@@H]4CNS(=O)(=O)O[C@@H]2C3)c(=O)[nH]1 [Compound 15] | – | – | 15611 pg/mL | – | 6.44 | 7.37
Nc1ncnc2c1ncn2C1O[C@@H]2CNS(=O)(=O)O[C@H]3C(n4cnc5c(N)ncnc54)O[C@H](COP(=O)(O)O[C@H]2[C@H]1F)[C@H]3O (stereo partly drawn) [Compound 17] | – | 5.29 | 17298 pg/mL | – | 4.67 | 6.60
Nc1nc2c(ncn2C2O[C@@H]3COP(=O)(O)O[C@H]4C[C@H](n5cnc6c(N)ncnc65)OC4CNS(=O)(=O)O[C@@H]2[C@@H]3O)c(=O)[nH]1 (stereo partly drawn) [Compound 18] | – | – | 15249 pg/mL | – | 5.94 | 6.96
CO[C@H]1[C@H]2OP(=O)(O)OC[C@H]3O[C@@H](n4cnc5c(N)ncnc54)C[C@@H]3NS(=O)(=O)OC[C@H]1O[C@H]2n1cnc2c(=O)[nH]c(N)nc21 [Compound 20] | – | 8.09 | 6045 pg/mL | – | 7.33 | ~6.66
CO[C@H]1[C@H]2OP(=O)(O)OC[C@H]3OC(n4cnc5c(N)ncnc54)[C@H](F)[C@@H]3OS(=O)(=O)NC[C@H]1O[C@H]2n1cnc2c(=O)[nH]c(N)nc21 (stereo partly drawn) [Compound 22] | – | – | – | – | 7.04 | 7.59
CO[C@H]1[C@H]2OP(=O)(O)OC[C@H]3OC(n4cnc5c(N)ncnc54)C[C@@H]3OS(=O)(=O)NC[C@H]1O[C@H]2n1cnc2c(=O)[nH]c(N)nc21 (stereo partly drawn) [Compound 24] | – | – | 11534 pg/mL | – | 5.30 | 7.96
Nc1nc2c(ncn2C2OC3CNS(=O)(=O)OC4C(COP(=O)(O)OC2C3)OC(n2cnc3c(N)ncnc32)C4F)c(=O)[nH]1 (stereo not drawn) [Compound 26] | – | – | – | – | 4.55 | 5.99
CO[C@H]1[C@H]2OS(=O)(=O)NC[C@H]3O[C@@H](n4cnc5c(N)ncnc54)[C@@H](F)[C@@H]3O[P@](=O)(O)OC[C@H]1O[C@H]2n1cnc2c(=O)[nH]c(N)nc21 [Compound 28] | – | – | 12969 pg/mL | – | 6.72 | 7.00
Nc1ncnc2c1ncn2[C@@H]1O[C@@H]2CNS(=O)(=O)O[C@@H]3[C@H](O)[C@@H](COP(=O)(O)O[C@H]2[C@H]1O)O[C@H]3n1cnc2c(N)ncnc21 [Compound 30] | – | – | – | – | < 4.00 | 4.88
Nc1ncnc2c1ncn2[C@@H]1O[C@@H]2COP(=O)(O)O[C@@H]3[C@H](F)[C@@H](CNS(=O)(=O)O[C@H]2[C@H]1F)O[C@H]3n1cnc2c(N)ncnc21 [Compound 35] | – | – | – | – | < 4.00 | 5.15
Nc1ncnc2c1ncn2[C@@H]1O[C@@H]2COP(=O)(O)O[C@H]3C[C@H](n4cnc5c(N)ncnc54)O[C@@H]3CNS(=O)(=O)O[C@@H]1[C@@H]2F [Compound 36] | – | – | – | – | < 4.00 | 5.61
Nc1nc2c(nnn2[C@@H]2O[C@@H]3CNS(=O)(=O)O[C@H]4[C@@H](F)[C@H](n5cnc6c(N)ncnc65)O[C@@H]4COP(=O)(O)O[C@@H]2C3)c(=O)[nH]1 [Compound 37] | – | – | – | – | 4.91 | 5.87
Nc1ncnc2c1ncn2[C@@H]1O[C@@H]2CNS(=O)(=O)O[C@@H]3[C@H](F)[C@@H](COP(=O)(O)O[C@H]2[C@H]1F)O[C@H]3n1cnc2c(=O)[nH]cnc21 [Compound 39] | – | – | – | – | 7.68 | 7.19
CO[C@H]1[C@H]2OS(=O)(=O)NC[C@H]3O[C@@H](n4cnc5c(N)ncnc54)C[C@@H]3OP(=O)(O)OC[C@H]1O[C@H]2n1cnc2c(=O)[nH]cnc21 [Compound 40] | – | – | – | – | 7.18 | 7.42
Nc1ncnc2c1ncn2C1O[C@@H]2COP(=O)(O)O[C@@H]3[C@H](O)C(CNS(=O)(=O)O[C@H]2[C@H]1F)O[C@H]3n1cnc2c(N)ncnc21 (stereo partly drawn) [Compound 41] | – | – | – | – | < 4.00 | 4.65
Nc1nc2c(ncn2[C@@H]2O[C@@H]3CNS(=O)(=O)OC4[C@@H](F)[C@H](n5cnc6c(N)ncnc65)O[C@@H]4COP(=O)(O)O[C@@H]2[C@@H]3O)c(=O)[nH]1 (stereo partly drawn) [Compound 47] | – | – | – | – | 5.89 | ~7.41
COC1C2COP(=O)(O)OC3C(CNS(=O)(=O)OC1C(n1nnc4c(=O)[nH]c(N)nc41)O2)OC(n1cnc2c(N)ncnc21)C3F (stereo not drawn) [Compound 51] | – | – | – | – | 7.96 | –
CO[C@H]1[C@H]2OP(=O)(O)OC[C@H]3O[C@@H](n4cnc5c(=O)[nH]cnc54)[C@H](F)[C@@H]3OS(=O)(=O)NC[C@H]1O[C@H]2n1cnc2c(=O)[nH]c(N)nc21 [Compound 53] | – | – | 11036 pg/mL | – | 5.40 | –
CO[C@H]1[C@H]2OS(=O)(=O)NC[C@H]3O[C@@H](n4cnc5c(N)ncnc54)[C@H](F)[C@@H]3OP(=O)(O)OC[C@H]1O[C@H]2n1cc(F)c2c(=O)[nH]cnc21 [Compound 54] | – | – | 18578 pg/mL | – | 6.12 | –
CO[C@H]1[C@H]2OS(=O)(=O)NC[C@H]3O[C@@H](n4cnc5c(N)ncnc54)[C@H](F)[C@@H]3OP(=O)(O)OC[C@H]1O[C@H]2n1cc(F)c2c(=O)n(C)cnc21 [Compound 55] | – | – | 25628 pg/mL | – | 6.66 | –
Nc1nc2c(ncn2[C@@H]2O[C@@H]3COP(=O)(O)O[C@H]4[C@@H](O)[C@H](n5cnc6c(N)ncnc65)O[C@@H]4COP(=O)(O)O[C@@H]2[C@@H]3O)c(=O)[nH]1 [c-GAMP, (2′,3′)cyclic guanosine monophosphate-adenosine monophosphate, reference compound] | – | – | – | 6.28 | – | –
